# Test results as given in ChEMBL document CHEMBL3885881, “DrugMatrix”.
# Species on record: Rattus norvegicus
# Experiment: DrugMatrix - Regimen: Daily Repeat
# Assay type: toxicity, organism-based, Sprague-Dawley
# Design: regimen Daily Repeat, gender Male, age 6-8 weeks
# Conditions: in vivo, iv, vehicle 100 % SALINE; for ABSOLUTE BASOPHIL / ABSOLUTE EOSINOPHIL / ABSOLUTE LYMPHOCYTE / ABSOLUTE MONOCYTE / ABSOLUTE SEGMENTED NEUTROPHIL / BASOPHIL / EOSINOPHIL / ERYTHROCYTE COUNT / HEMATOCRIT / HEMOGLOBIN / LEUKOCYTE COUNT / LYMPHOCYTE / MEAN CORPUSCULAR HEMOGLOBIN / MEAN CORPUSCULAR HEMOGLOBIN CONCENTRATION / MEAN CORPUSCULAR VOLUME / MONOCYTE / NEUTROPHIL / NUCLEATED RED BLOOD CELLS / PLATELET COUNT: tissue Blood; for ALANINE AMINOTRANSFERASE / ALBUMIN / ALKALINE PHOSPHATASE / ASPARTATE AMINOTRANSFERASE / BLOOD UREA NITROGEN / CARBON DIOXIDE / CHLORIDE / CHOLESTEROL / CREATINE PHOSPHOKINASE / CREATININE / GLUCOSE / LACTATE DEHYDROGENASE / LIPASE / PHOSPHORUS / POTASSIUM / SODIUM / TOTAL BILIRUBIN / TOTAL PROTEIN / URIC ACID: tissue Plasma
# [1] = 23 mg/kg, 120 h, dose level High, time 5 day
# [2] = […], 72 h, dose 2.3 mg/Kg, dose level Low, time 3 day
# [3] = […], 120 h, dose 2.3 mg/Kg, dose level Low, time 5 day
compound,measurement,setting,value
COC(=O)C[C@](O)(CCC(C)(C)O)C(=O)O[C@@H]1C(OC)=C[C@]23CCCN2CCc2cc4c(cc2[C@H]13)OCO4 [HARRINGTONINE],ABSOLUTE BASOPHIL,[1],0 CELLS/uL
same,ABSOLUTE EOSINOPHIL,[1],0 CELLS/uL
same,ABSOLUTE LYMPHOCYTE,[1],5612 CELLS/uL
same,ABSOLUTE MONOCYTE,[1],134.67 CELLS/uL
same,ABSOLUTE SEGMENTED NEUTROPHIL,[1],53.33 CELLS/uL
same,BASOPHIL,[1],0%
same,EOSINOPHIL,[1],0%
same,ERYTHROCYTE COUNT,[1],5.85 x10E6/uL
same,HEMATOCRIT,[1],36.17%
same,HEMOGLOBIN,[1],13.93 G/DL
same,LEUKOCYTE COUNT,[1],5.8 x10E3/uL
same,LYMPHOCYTE,[1],96.67%
same,MEAN CORPUSCULAR HEMOGLOBIN,[1],23.83 pg
same,MEAN CORPUSCULAR HEMOGLOBIN CONCENTRATION,[1],38.53 G/DL
same,MEAN CORPUSCULAR VOLUME,[1],61.87 fL
same,MONOCYTE,[1],2.33%
same,NEUTROPHIL,[1],1%
same,NUCLEATED RED BLOOD CELLS,[1],0 /100WBC
same,PLATELET COUNT,[1],414 x10E3/uL
same,ALANINE AMINOTRANSFERASE,[1],83 u/L
same,ALBUMIN,[1],3.47 G/DL
same,ALKALINE PHOSPHATASE,[1],214 u/L
same,ASPARTATE AMINOTRANSFERASE,[1],226.33 u/L
same,BLOOD UREA NITROGEN,[1],15.67 mg/dL
same,CARBON DIOXIDE,[1],24 mmol/L
same,CHLORIDE,[1],100.33 MEQ/L
same,CHOLESTEROL,[1],71 mg/dL
same,CREATINE PHOSPHOKINASE,[1],222 u/L
same,CREATININE,[1],0.27 mg/dL
same,GLUCOSE,[1],151.67 mg/dL
same,LACTATE DEHYDROGENASE,[1],292.33 u/L
same,LIPASE,[1],7.33 u/L
same,PHOSPHORUS,[1],9.13 mg/dL
same,POTASSIUM,[1],6.23 MEQ/L
same,SODIUM,[1],143.4 MEQ/L
same,TOTAL BILIRUBIN,[1],0.23 mg/dL
same,TOTAL PROTEIN,[1],5.73 G/DL
same,URIC ACID,[1],1.2 mg/dL
same,ABSOLUTE BASOPHIL,[2],0 CELLS/uL
same,ABSOLUTE EOSINOPHIL,[2],41.67 CELLS/uL
same,ABSOLUTE LYMPHOCYTE,[2],11224.33 CELLS/uL
same,ABSOLUTE MONOCYTE,[2],81.33 CELLS/uL
same,ABSOLUTE SEGMENTED NEUTROPHIL,[2],586 CELLS/uL
same,BASOPHIL,[2],0%
same,EOSINOPHIL,[2],0.33%
same,ERYTHROCYTE COUNT,[2],5.44 x10E6/uL
same,HEMATOCRIT,[2],34.9%
same,HEMOGLOBIN,[2],13.83 G/DL
same,LEUKOCYTE COUNT,[2],11.93 x10E3/uL
same,LYMPHOCYTE,[2],94%
same,MEAN CORPUSCULAR HEMOGLOBIN,[2],25.47 pg
same,MEAN CORPUSCULAR HEMOGLOBIN CONCENTRATION,[2],39.63 G/DL
same,MEAN CORPUSCULAR VOLUME,[2],64.17 fL
same,MONOCYTE,[2],0.67%
same,NEUTROPHIL,[2],5%
same,NUCLEATED RED BLOOD CELLS,[2],0 /100WBC
same,PLATELET COUNT,[2],1133.33 x10E3/uL
same,ALANINE AMINOTRANSFERASE,[2],48.67 u/L
same,ALBUMIN,[2],4.13 G/DL
same,ALKALINE PHOSPHATASE,[2],303.67 u/L
same,ASPARTATE AMINOTRANSFERASE,[2],64.33 u/L
same,BLOOD UREA NITROGEN,[2],15.67 mg/dL
same,CARBON DIOXIDE,[2],31.67 mmol/L
same,CHLORIDE,[2],101 MEQ/L
same,CHOLESTEROL,[2],51 mg/dL
same,CREATINE PHOSPHOKINASE,[2],184 u/L
same,CREATININE,[2],0.17 mg/dL
same,GLUCOSE,[2],163 mg/dL
same,LACTATE DEHYDROGENASE,[2],69 u/L
same,LIPASE,[2],8.67 u/L
same,PHOSPHORUS,[2],12.37 mg/dL
same,POTASSIUM,[2],6.49 MEQ/L
same,SODIUM,[2],146.83 MEQ/L
same,TOTAL BILIRUBIN,[2],0.2 mg/dL
same,TOTAL PROTEIN,[2],5.5 G/DL
same,URIC ACID,[2],2 mg/dL
same,ABSOLUTE BASOPHIL,[3],0 CELLS/uL
same,ABSOLUTE EOSINOPHIL,[3],0 CELLS/uL
same,ABSOLUTE LYMPHOCYTE,[3],10385.33 CELLS/uL
same,ABSOLUTE MONOCYTE,[3],95.33 CELLS/uL
same,ABSOLUTE SEGMENTED NEUTROPHIL,[3],1152.67 CELLS/uL
same,BASOPHIL,[3],0%
same,EOSINOPHIL,[3],0%
same,ERYTHROCYTE COUNT,[3],5.81 x10E6/uL
same,HEMATOCRIT,[3],35.2%
same,HEMOGLOBIN,[3],13.83 G/DL
same,LEUKOCYTE COUNT,[3],11.63 x10E3/uL
same,LYMPHOCYTE,[3],90.67%
same,MEAN CORPUSCULAR HEMOGLOBIN,[3],23.83 pg
same,MEAN CORPUSCULAR HEMOGLOBIN CONCENTRATION,[3],39.3 G/DL
same,MEAN CORPUSCULAR VOLUME,[3],60.6 fL
same,MONOCYTE,[3],0.67%
same,NEUTROPHIL,[3],8.67%
same,NUCLEATED RED BLOOD CELLS,[3],0.33 /100WBC
same,PLATELET COUNT,[3],1139 x10E3/uL
same,ALANINE AMINOTRANSFERASE,[3],52 u/L
same,ALBUMIN,[3],4.03 G/DL
same,ALKALINE PHOSPHATASE,[3],408.33 u/L
same,ASPARTATE AMINOTRANSFERASE,[3],89.67 u/L
same,BLOOD UREA NITROGEN,[3],18.67 mg/dL
same,CARBON DIOXIDE,[3],25 mmol/L
same,CHLORIDE,[3],102 MEQ/L
same,CHOLESTEROL,[3],60 mg/dL
same,CREATINE PHOSPHOKINASE,[3],576 u/L
same,CREATININE,[3],0.16 mg/dL
same,GLUCOSE,[3],170.33 mg/dL
same,LACTATE DEHYDROGENASE,[3],158.67 u/L
same,LIPASE,[3],8.67 u/L
same,PHOSPHORUS,[3],12.3 mg/dL
same,POTASSIUM,[3],6.27 MEQ/L
same,SODIUM,[3],145.13 MEQ/L
same,TOTAL BILIRUBIN,[3],0.2 mg/dL
same,TOTAL PROTEIN,[3],5.73 G/DL
same,URIC ACID,[3],1.6 mg/dL
